Data from patent US20230174662A1, “METHODS OF TREATING CASTRATE-RESISTANT PROSTATE CANCER” (FONDAZIONE PER L'ISTITUTO ONCOLOGICO DI RICERCA (IOR), priority 2019, published 2023).

Key:
CDCP1 in LNCaP ADS cells = details: DHT stimulation 16 h after 2 days in FAD
Experimental: C. Left panel, Quantitative real time PCR analysis of CDCP1 mRNA levels in LNCaP grown in full media, full androgen depreviation (FAD) and stimulated with dihydrotestosterone (DHT 1 μM, 16 h) after grown for 2 days in FAD. Right panel, Western blot analysis of CDCP1, p-SRC, SRC, p-AKT, AKT, p-ERK1/2 and ERK1/2 in LNCaP grown in full media, FAD and stimulated with DHT (1 μM, 16 h) after grown for 2 days in FAD.
Tissue and cell lysates were prepared with RIPA buffer (Catalog #9806, Cell Signaling Technology) with PMSF (Phenylmethanesulfonyl fluoride; Catalog #329-98-6, Sigma). Protein concentrations of the lysates were measured by Pierce BCA Protein Assay Kit (Catalog #23225, Thermo Scientific). The lysates were then resolved by SDS-PAGE and immunoblotted with the indicated antibodies.
RNA was extracted using TRIzol® Plus RNA Purification Kit (Catalog #12183555, Life technologies). 1 μg of total RNA was used for cDNA synthesis using SuperScript® III Platinum® One-Step qRT-PCR Kit (Catalog #11732-020, Life technologies). […] All qRT-PCR data presented was normalized using GAPDH, HRPT or 18S rRNA.

LNCaP xenografts = assay: LNCaP xenograft tumour growth in SCID mice; type: in vivo, mouse; details: single agent, LNCaP s.c. in SCID mice, one week; Enzalutamide 10 mg/kg
Source text: (§1) FIG. 7A. Left panel, Quantification of fold change in growth by crystal violet in LNCaP kept in full media and in LNCaP kept in full media and treated with mAb-CUB4. Right panel, Quantification of fold change in growth by crystal violet in LNCaP kept in FAD and in LNCaP kept in FAD and treated with mAb-CUB4. B. Left panel, Xenografts tumour growth (mm3) of LNCaP cell line untreated, treated with Enzalutamide, Immuno-liposome and treated with the combination of Enzalutamide and immuno-liposome. Right panel, quantification of fold change in protein levels of Cleaved Caspase 3 in LNCaP xenografts groups. C. Western blot analysis of CDCP1 expression, p-SRC and Cleaved Caspase 3 in LNCaP xenografts groups.
(§2) These findings were further validated in LNCaP-abl cells, an androgen insensitive cell line. […] Given the fact that CDCP1 expression is elevated by androgen deprivation, we postulated that targeting CDCP1 could serve as a powerful tool to treat prostate cancers treated with enzalutamide. […] Since senescence works as a double edge sword that may stimulate cancer cell growth in certain conditions, we decided to develop a novel anti-CDCP1 dual steal immunoliposome carrying doxorubicin (anti-CDCP1 ILs) to eliminate the CDCP1 overexpressing resistant cells.

[1] = test system: CDCP1 in LNCaP xenografts; assay: Western blot of CDCP1 in LNCaP xenografts; type: in vivo, mouse; details: Enzalutamide alone
Source text: as §1, §2

Row | SMILES | CDCP1 expression and protein levels (CDCP1 in LNCaP ADS cells) | effect on tumor growth (LNCaP xenografts) | levels of CDCP1 by Western blot [1]
1 | C[C@]12CCC(=O)C[C@@H]1CC[C@@H]1[C@@H]2CC[C@]2(C)[C@@H](O)CC[C@@H]12 [DHT, 5α-Dihydrotestosterone] | reduced its expression and protein levels | – | –
2 | CNC(=O)c1ccc(N2C(=S)N(c3ccc(C#N)c(C(F)(F)F)c3)C(=O)C2(C)C)cc1F [Enzalutamide, 4-[3-[4-cyano-3-(trifluoromethyl)phenyl]-5,5-dimethyl-4-oxo-2-sulfanylideneimidazolidin-1-yl]-2-fluoro-N-methylbenzamide] | – | minor effect on tumor growth | significant increased levels of CDCP1
